Assays:
[1] = test system: FB1 39 (DNA, aptamer) ATACCAGCTTATTCAATTAATCGCATTACCTTATACCAGCTTATTCAATTACGTCTGCACATACCAGCTTATTCAATTAGATAGTAAGTGCAATCT; test: magnetic bead binding, fluorescence of eluted DNA; conditions: 100 mM NaCl, 5 mM KCl, 2 mM MgCl2, 1 mM CaCl2; 20 mM Tris pH 7.6, room temperature; immobilised compound; aptamer 1 nM to 1 μM
[2] = test system: FB1 14 (DNA, aptamer) ATACCAGCTTATTCAATTCTATACGGAGTGGATATCGATCTGTAACGTGAGTGAGATAATGTGATGCATAGTCGTGGAGATAGTAAGTGCAATCT; test: magnetic bead binding, percent DNA eluted (fluorescence); conditions: 100 mM NaCl, 5 mM KCl, 2 mM MgCl2, 1 mM CaCl2; 20 mM Tris pH 7.6, room temperature; immobilised compound; 9-15 pmol DNA, 2 × 10^8 beads
[3] = test system: FB1 16 (DNA, aptamer) ATACCAGCTTATTCAATTCATCCAGTAACAAACACATAAGTAACGGCGATATGTCAAAGCGGTATCGGCTACAGATGAGATAGTAAGTGCAATCT; test: as above; conditions: 100 mM NaCl, 5 mM KCl, 2 mM MgCl2, 1 mM CaCl2; 20 mM Tris pH 7.6, room temperature; immobilised compound; 9-15 pmol DNA, 2 × 10^8 beads
[4] = test system: FB1 23 (DNA, aptamer) ATACCAGCTTATTCAATTGCGGATGCGTAAATGACGATAAACATAGATGGGGTATATCGCGATGCGACAGGGTGTAGATAGTAAGTGCAATCT; test: as above; conditions: 100 mM NaCl, 5 mM KCl, 2 mM MgCl2, 1 mM CaCl2; 20 mM Tris pH 7.6, room temperature; immobilised compound; 9-15 pmol DNA, 2 × 10^8 beads
[5] = test system: FB1 31 (DNA, aptamer) ATACCAGCTTATTCAATTCGGGGACGTGTATACCAGCTTATTCAATTCACAGTTATGTCCTATACCAGCTTATTCAATTAGATAGTAAGTGCAATCT; test: as above; conditions: 100 mM NaCl, 5 mM KCl, 2 mM MgCl2, 1 mM CaCl2; 20 mM Tris pH 7.6, room temperature; immobilised compound; 9-15 pmol DNA, 2 × 10^8 beads
[6] = test system: FB1 32 (DNA, aptamer) ATACCAGCTTATTCAATTAATGTACGATGTGTGGGCAACATGAGTATGTCGTGTGATATCTAGATGAGGTAGCGGTGGAGATAGTAAGTGCAATCT; test: as above; conditions: 100 mM NaCl, 5 mM KCl, 2 mM MgCl2, 1 mM CaCl2; 20 mM Tris pH 7.6, room temperature; immobilised compound; 9-15 pmol DNA, 2 × 10^8 beads

CCCC[C@@H](C)[C@@H](OC(=O)C[C@@H](CC(=O)O)C(=O)O)[C@H](C[C@@H](C)C[C@H](O)CCCC[C@@H](O)C[C@H](O)[C@H](C)N)OC(=O)C[C@@H](CC(=O)O)C(=O)O
KD [1]: 0.1 ± 0.03 µM | binding [2]: yes | binding [3]: yes | binding [4]: yes | binding [5]: yes | binding [6]: yes

Source: PMC3100853 (2010)
